# Columns and labels:
# Tph-1 = target: T1, Tph-1 (Mus musculus, UniProt P17532); experiment: EAE mouse model with Tph-1 inhibition (NAD+ plus p-Chlorophenylalanine); assay type: in vivo
# T1 construct: from tissue; host or cells: whole animal: C57BL/6 mice (Charles River Laboratories)
# T1 sequence (P17532 1-447): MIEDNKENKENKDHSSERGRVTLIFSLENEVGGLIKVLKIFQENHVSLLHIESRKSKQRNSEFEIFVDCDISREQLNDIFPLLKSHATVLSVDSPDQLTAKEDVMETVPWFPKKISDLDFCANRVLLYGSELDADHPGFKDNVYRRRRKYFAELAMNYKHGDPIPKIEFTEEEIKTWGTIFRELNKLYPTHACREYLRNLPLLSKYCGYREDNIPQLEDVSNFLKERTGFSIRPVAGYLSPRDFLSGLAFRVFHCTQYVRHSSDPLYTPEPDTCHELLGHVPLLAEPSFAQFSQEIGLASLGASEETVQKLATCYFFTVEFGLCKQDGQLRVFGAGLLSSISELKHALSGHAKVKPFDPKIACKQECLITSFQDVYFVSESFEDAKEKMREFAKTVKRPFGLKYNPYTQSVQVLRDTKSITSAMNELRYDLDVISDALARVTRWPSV
# Method: Tph-1 has been very recently shown to prevent from allograft rejection and EAE^45. Thus, it was tested, in vivo, whether NAD^+ protects from EAE and regulates CD4^+ T cell differentiation through Tph1. Mice were subjected to EAE and were treated daily with a placebo solution (PBS) or NAD^+ in addition to p-Chlorophenylalanine, a specific inhibitor of Tph-1.
# Onsets of clinical signs of EAE in mice injected with MOG peptide and a placebo solution appeared after 11 days (FIG. 6A). […] However, when NAD^+ treated mice received simultaneously a treatment with a Tph-1 inhibitor, onset of clinical signs of EAE appeared after 11 days.
# EAE was induced in 10-week-old C57BL/6 mice using Hooke Labs EAE induction kit (EK-2110) according to manufacturer's instructions. […] For NAD^+ treatment mice received a daily intraperitoneal injection (60 mg in 100 μl in PBS) or a placebo solution (100 μl of PBS) at the same day than MOG immunization. Mice were sacrificed at day 18 and single cell suspension was obtained from spleens for flow cytometry analysis. To test whether NAD^+ was able to reverse the development of EAE, another group of mice was treated daily (for a period of 10 days) with NAD^+ (60 mg/mouse) or a placebo solution 15 days after MOG immunization when mice were scored 3 with a bilateral hindlimb paresis. EAE disease progression was monitored. For Tph-1 or CA3 inhibition, mice received daily intraperitoneal injections (simultaneous to NAD^−) of p-Chlorophenylalanine (1 ml of a 10 mM solution stock, catalog number 0938, Tocris Bioscience) or N-[[[(1S)-1-Carboxy-3-methylbutyl]amino]carbonyl]-L-glutamic acid (100 μl of a 100 mM solution stock, ZJ 43 catalog number 2675,Tocris Bioscience), respectively.
# CD4+CD25+ nTregs = experiment: IL-17A secretion by nTregs cultured with NAD+ and purinergic receptor antagonists; conditions: for reduction of IL-17A cytokine production induced by NAD+: both selective antagonists (5-BDBD and A804598) added; for production of IL-17A cytokine induced by NAD+: nTregs cultured with NAD+ and the selective antagonist (5-BDBD: P2RX4; A804598: P2RX7; MRS 2279: P2RY1), ELISA
# [1] = NAD+ plus Tph-1 inhibition, flow cytometry
# [2] = NAD+ treatment followed by Tph-1 inhibition, spleen, flow cytometry
smiles,measurement,setting,value
N[C@@H](Cc1ccc(Cl)cc1)C(=O)O (racemic) [p-Chlorophenylalanine],clinical observation,Tph-1; EAE mice treated with NAD+ and Tph-1 inhibitor,hindlimb paralysis and became rapidly lethargic
same,clinical signs of EAE vs MOG + placebo group,"Tph-1; NAD+ and p-Chlorophenylalanine, 13 days after MOG immunization",more severe clinical signs of EAE
same,CD4+CD25+Foxp3+ cell frequencies,Tph-1; [1],dramatic decrease
same,IL-17A+IL-23R+ cells,Tph-1; [1],significant increase
same,onset of clinical signs of EAE,"Tph-1; NAD+ treated mice receiving Tph-1 inhibitor simultaneously, after MOG immunization",11 days
same,IL-10/IFNγ producing cells,Tph-1; [2],reduced systemically
same,IL-17A producing cells,Tph-1; [2],reduced systemically
O=C1CN=C(c2cccc(Br)c2)c2oc3ccccc3c2N1 [5-BDBD],reduction of IL-17A cytokine production induced by NAD+,CD4+CD25+ nTregs,complete
same,production of IL-17A cytokine induced by NAD+,CD4+CD25+ nTregs,dramatic reduced production
"C[C@H](NC(=NC#N)Nc1cccc2ncccc12)c1ccccc1 [A804598, 2-cyano-1-[(1S)-1-phenylethyl]-3-quinolin-5-ylguanidine]",reduction of IL-17A cytokine production induced by NAD+,CD4+CD25+ nTregs,complete
same,production of IL-17A cytokine induced by NAD+,CD4+CD25+ nTregs,dramatic reduced production
"CNc1nc(Cl)nc2c1ncn2[C@H]1C[C@H](OP(=O)(O)O)[C@]2(COP(=O)(O)O)C[C@H]12 [MRS 2279, 2-Chloro N(6)-methyl-(N)-methanocarba-2′-deoxyadenosine-3′,5′-bisphosphate]",production of IL-17A cytokine induced by NAD+,CD4+CD25+ nTregs,did not change

# — patent US20160067272A1, “METHODS FOR TREATING IMMUNE DISEASES” (priority 2013, published 2016)
